# In patent US4562176A, “Method and composition for treating cancer” (priority 1985, dated 1985):
# Legend:
# [1] = test system: human lymphoblastic leukemia cells (CCRF-CEM); assay: In vitro growth inhibition of CCRF-CEM cells; format: cell-based; settings: for In Vitro (CCRF-CEM) ID50: cells in log-phase growth, suspension culture, final growth medium 5% Me2SO
# Procedure: ^b Human lymphoblastic luekemia cells in logphase growth and in a
# suspension culture. Compounds were dissolved in Me2 SO medium, final
# growth medium contained 5% Me2 SO.
# In vitro growth inhibition of the analogues were assayed against human lymphoblastic leukemia cells (CCRF-CEM) in log phase. The most cyctoxic are AMD-OZN analogues 2b and 2g and AMD-OZL analogues 4a-4c. However, compared to AMD, they are several fold less cytotoxic to CEM-cells in vitro.
# [2] = test system: P388 lymphocytic leukemia; assay: In vivo P388 assay; parameters: species or system mice; settings: at optimum dose, ip days 1,5,9; for % ILS (percent increase in life span) / MST (median survival time): CDF1 male mice; for MST (median survival time): control MST 11.0 days; for Cure (over 60 day survivors): group of 7 CDF1 male mice, average of 2 experiments
# Procedure: ^c 10^6 P388 cells implanted intraperitoneally on day 0 into a
# group of 7 CDF1 male mice. Drugs were administered, also ip, in 10%
# Me2 SO--saline on days 1,5,9. Test solutions were kept at 0-4.degree
# C., protected from light.
# These analogues were tested for antitumor activity against P388 lymphocytic leukemia in male CDF1 hybrid mice (Table 6). The tumor was implanted intraperitoneally (ip) with 10^6 cells. The drugs were administered once daily on days 1, 5, 9 beginning 1 day after implantation.
# DNA = assay: DNA-drug binding by difference spectral (absorption and CD) techniques; settings: difference spectral or ΔTm techniques
# Excerpt: ^b Diff. Absorption Spectra is the calculated absorption spectra
# obtained by subtracting the spectrum of the DNAbound analogue from the
# spectrum of the free analogue, measured at 340-600 nm.
# ^c Diff. CD Spectra is the calculated CD Spectra obtained as the
# difference of the DNAbound from the combined individual spectra of
# analogues and DNA at 340-600 nm.
# Medium: 0.01 M phosphate containing 10^-4 EDTA, buffer pH 7.0.
# DNA-DRUG BINDING BY DIFFERENCE SPECTRAL AND THERMAL DEVATURATION OF DNA (ΔTm) TECHNIQUES
# These experiments were performed according to the methods described by Sengupta et al., Cancer Chemother. Rep., 1974, 58, p. 35, Sengupta et al, J. Med. Chem., 1981, 24, p. 1052 and Sengupta et al, 1983, 26, p. 448, Sengupta et al, 1978, Biochem. Biophys Acta, 521, p. 89.
DNA binding (in words) (DNA),SMILES,In Vitro (CCRF-CEM) ID50 [1] [µg/mL],% ILS (percent increase in life span) [2] [%],MST (median survival time) [2] [days],Cure (over 60 day survivors) [2],cytotoxicity to CEM cells (in words) ([1]; CCRF-CEM in log phase)
,"Cc1ccc(C(=O)N[C@@H]2C(=O)N[C@H](C(C)C)C(=O)N3CCC[C@H]3C(=O)N(C)CC(=O)N(C)[C@@H](C(C)C)C(=O)O[C@@H]2C)c2c1Oc1c(c(C(=O)N[C@@H]3C(=O)N[C@H](C(C)C)C(=O)N4CCC[C@H]4C(=O)N(C)CC(=O)N(C)[C@@H](C(C)C)C(=O)O[C@@H]3C)c3nc(-c4ccccc4)oc3c1C)N2 [Compound 3b, 2-PHENYL-9,11-DIMETHYL-5H-OXAZOLO[4,5-b]PHENOXAZINE 4,6-BIS[CARBONYL-L-THREONYL-D-VALYL-L-PROLYLSARCOSYL-L-N-METHYL-VALINE-(TH REONINE HYDROXYL)] LACTONE]",9,109,23,0/7,
,Cc1c2oc3c(C)c4oc(-c5c(F)c(F)c(F)c(F)c5F)nc4c(C(=O)N[C@@H]4C(=O)N[C@H](C(C)C)C(=O)N5CCC[C@H]5C(=O)N(C)CC(=O)N(C)[C@@H](C(C)C)C(=O)O[C@@H]4C)c3nc-2c(C(=O)N[C@@H]2C(=O)N[C@H](C(C)C)C(=O)N3CCC[C@H]3C(=O)N(C)CC(=O)N(C)[C@@H](C(C)C)C(=O)O[C@@H]2C)cc1=O [Compound 4c],0.63,172,30,1/7,
,Cc1ccc(C(=O)N[C@@H]2C(=O)N[C@H](C(C)C)C(=O)N3CCC[C@H]3C(=O)N(C)CC(=O)N(C)[C@@H](C(C)C)C(=O)O[C@@H]2C)c2c1Oc1c(c(C(=O)N[C@@H]3C(=O)N[C@H](C(C)C)C(=O)N4CCC[C@H]4C(=O)N(C)CC(=O)N(C)[C@@H](C(C)C)C(=O)O[C@@H]3C)c3nc(-c4ccccc4Cl)c(=O)oc3c1C)N2 [Compound 2c],1.8,172,30,1/7,
,Cc1ccc(C(=O)N[C@@H]2C(=O)N[C@H](C(C)C)C(=O)N3CCC[C@H]3C(=O)N(C)CC(=O)N(C)[C@@H](C(C)C)C(=O)O[C@@H]2C)c2c1Oc1c(c(C(=O)N[C@@H]3C(=O)N[C@H](C(C)C)C(=O)N4CCC[C@H]4C(=O)N(C)CC(=O)N(C)[C@@H](C(C)C)C(=O)O[C@@H]3C)c3nc(-c4c(F)c(F)c(F)c(F)c4F)c(=O)oc3c1C)N2 [Compound 2g],0.64,186,31.5,1/7,most cyctoxic
,"Cc1ccc(C(=O)N[C@@H]2C(=O)N[C@H](C(C)C)C(=O)N3CCC[C@H]3C(=O)N(C)CC(=O)N(C)[C@@H](C(C)C)C(=O)O[C@@H]2C)c2c1Oc1c(c(C(=O)N[C@@H]3C(=O)N[C@H](C(C)C)C(=O)N4CCC[C@H]4C(=O)N(C)CC(=O)N(C)[C@@H](C(C)C)C(=O)O[C@@H]3C)c3nc(-c4ccc5ccccc5c4)c(=O)oc3c1C)N2 [Compound 2i, 3-(2-NAPHTHYL)-10,12-DIMETHYL-2H,6H-OXAZINO[3,2-b]PHENOXAZINE-2-ONE 5,7-BIS[CARBONYL-L-THREONYL-D-VALYL-L-PROLYLSARCOSYL-L-N-METHYLVALINE-(THR EONINE HYDROXYL)] LACTONE]",1,136,26,0/7,
,Cc1ccc(C(=O)N[C@@H]2C(=O)N[C@H](C(C)C)C(=O)N3CCC[C@H]3C(=O)N(C)CC(=O)N(C)[C@@H](C(C)C)C(=O)O[C@@H]2C)c2c1Oc1c(c(C(=O)N[C@@H]3C(=O)N[C@H](C(C)C)C(=O)N4CCC[C@H]4C(=O)N(C)CC(=O)N(C)[C@@H](C(C)C)C(=O)O[C@@H]3C)c3nc(-c4ccc(Cl)cc4)c(=O)oc3c1C)N2 [Compound 2e],1.6,164,29,0/7,
,CCCCCCc1nc2c(C(=O)N[C@@H]3C(=O)N[C@H](C(C)C)C(=O)N4CCC[C@H]4C(=O)N(C)CC(=O)N(C)[C@@H](C(C)C)C(=O)O[C@@H]3C)c3c(c(C)c2oc1=O)Oc1c(C)ccc(C(=O)N[C@@H]2C(=O)N[C@H](C(C)C)C(=O)N4CCC[C@H]4C(=O)N(C)CC(=O)N(C)[C@@H](C(C)C)C(=O)O[C@@H]2C)c1N3 [Compound 2h],2.08,127,25,0/7,
,Cc1ccc(C(=O)N[C@@H]2C(=O)N[C@H](C(C)C)C(=O)N3CCC[C@H]3C(=O)N(C)CC(=O)N(C)[C@@H](C(C)C)C(=O)O[C@@H]2C)c2c1Oc1c(c(C(=O)N[C@@H]3C(=O)N[C@H](C(C)C)C(=O)N4CCC[C@H]4C(=O)N(C)CC(=O)N(C)[C@@H](C(C)C)C(=O)O[C@@H]3C)c3nc(-c4ccc(Cl)cc4Cl)c(=O)oc3c1C)N2 [Compound 2f],3.2,155,28,0/7,
,Cc1ccc(C(=O)N[C@@H]2C(=O)N[C@H](C(C)C)C(=O)N3CCC[C@H]3C(=O)N(C)CC(=O)N(C)[C@@H](C(C)C)C(=O)O[C@@H]2C)c2c1Oc1c(c(C(=O)N[C@@H]3C(=O)N[C@H](C(C)C)C(=O)N4CCC[C@H]4C(=O)N(C)CC(=O)N(C)[C@@H](C(C)C)C(=O)O[C@@H]3C)c3nc(-c4cccc(Cl)c4)c(=O)oc3c1C)N2 [Compound 2d],1.6,164,29,0/7,
binds to DNA strongly by intercalation,Cc1c2oc3c(C)ccc(C(=O)N[C@@H]4C(=O)N[C@H](C(C)C)C(=O)N5CCC[C@H]5C(=O)N(C)CC(=O)N(C)[C@@H](C(C)C)C(=O)O[C@@H]4C)c3nc-2c(C(=O)N[C@@H]2C(=O)N[C@H](C(C)C)C(=O)N3CCC[C@H]3C(=O)N(C)CC(=O)N(C)[C@@H](C(C)C)C(=O)O[C@@H]2C)cc1=O [2-deamino AMD],,,,,
,Cc1ccc(C(=O)N[C@@H]2C(=O)N[C@H](C(C)C)C(=O)N3CCC[C@H]3C(=O)N(C)CC(=O)N(C)[C@@H](C(C)C)C(=O)O[C@@H]2C)c2c1Oc1c(c(C(=O)N[C@@H]3C(=O)N[C@H](C(C)C)C(=O)N4CCC[C@H]4C(=O)N(C)CC(=O)N(C)[C@@H](C(C)C)C(=O)O[C@@H]3C)c3nc(-c4c(F)c(F)c(F)c(F)c4F)oc3c1C)N2 [Compound 3c],12.5,72,19,0/7,
